Patent publication US20170081324A1 (priority 2015, published 2017)
Read-outs that look alike come from different tables or passages of the source.

Key:
[1] = system: influenza A virus (IAV) A/Aichi/2/68 (H3N2) on MDCK cells; assay: microbe, parasite or virus in culture; assay type: cell-based, influenza A virus A/Aichi/2/68 (H3N2); conditions: 48 h
[2] = molecular target: whole RNP complex (viral RNPs) of IAV strain A/PR/8/34 (Influenza A virus, UniProt P03428); assay: biochemical
Chain of whole RNP complex (viral RNPs) of IAV strain A/PR/8/34 (P03428 whole entry, looked up, one chain of several): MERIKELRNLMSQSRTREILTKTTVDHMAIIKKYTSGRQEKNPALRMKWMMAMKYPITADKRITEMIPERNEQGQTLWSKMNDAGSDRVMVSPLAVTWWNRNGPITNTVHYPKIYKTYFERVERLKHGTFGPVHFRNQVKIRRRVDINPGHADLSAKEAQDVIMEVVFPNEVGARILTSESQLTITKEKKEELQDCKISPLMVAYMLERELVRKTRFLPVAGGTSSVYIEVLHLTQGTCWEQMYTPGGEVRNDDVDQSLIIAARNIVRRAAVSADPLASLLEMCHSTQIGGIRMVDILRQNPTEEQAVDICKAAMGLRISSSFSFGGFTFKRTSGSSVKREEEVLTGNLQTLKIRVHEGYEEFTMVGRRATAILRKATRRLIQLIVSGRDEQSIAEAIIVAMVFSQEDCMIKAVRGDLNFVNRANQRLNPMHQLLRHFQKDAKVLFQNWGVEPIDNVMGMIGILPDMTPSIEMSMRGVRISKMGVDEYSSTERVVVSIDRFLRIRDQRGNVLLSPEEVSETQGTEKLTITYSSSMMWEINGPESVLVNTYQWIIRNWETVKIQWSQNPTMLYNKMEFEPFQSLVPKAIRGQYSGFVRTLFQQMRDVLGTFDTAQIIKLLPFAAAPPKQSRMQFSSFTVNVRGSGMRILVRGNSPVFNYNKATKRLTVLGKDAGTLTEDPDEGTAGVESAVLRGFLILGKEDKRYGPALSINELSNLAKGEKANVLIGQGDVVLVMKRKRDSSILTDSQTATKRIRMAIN

Compound	IC50 ([1]; read-out: CPE) [µM]	IC50 [2] [µM]	IC50 ([1]; read-out: CPE IC50) [µM]
CC(C)C(C)Nc1nc(-c2ccc3n[nH]c(=O)n3c2)ncc1F (centres unmarked)	> 50	73.2	–
O=c1[nH]nc2ccc(-c3ncc(F)c(NCCO)n3)cn12	> 50	–	–
COC(=O)C[C@@H](Nc1nc(-c2ccc3n[nH]c(=O)n3c2)ncc1F)C(C)C	> 50	–	–
CC(C)[C@H](Nc1nc(-c2ccc3n[nH]c(=O)n3c2)ncc1F)C(=O)O	> 50	> 33.3	–
O=C(O)CC(Nc1nc(-c2ccc3n[nH]c(=O)n3c2)ncc1F)C1CC1 (centres unmarked)	> 50	> 25	–
COC(=O)CCCCCNc1nc(-c2ccc3n[nH]c(=O)n3c2)ncc1F	–	> 33.3	39.3
COC(=O)CC(Nc1nc(-c2ccc3n[nH]c(=O)n3c2)ncc1F)C1CC1 (centres unmarked)	> 50	–	–
CC(C)Nc1nc(-c2ccc3n[nH]c(=O)n3c2)ncc1F	> 50	44.9	–
CNc1nc(-c2ccc3n[nH]c(=O)n3c2)ncc1F	> 50	> 33.3	–
O=c1[nH]nc2ccc(-c3ncc(F)c(NCC4CC4)n3)cn12	> 50	> 33.3	–
O=c1[nH]nc2ccc(-c3ncc(F)c(NC4CCCCC4)n3)cn12	> 50	–	–
O=C(N[C@@H]1CCC[C@H](Nc2nc(-c3cccc4n[nH]c(=O)n34)ncc2F)C1)N1CCCC1 [reference compound]	> 50	–	–
COC(=O)[C@@H](Nc1nc(-c2ccc3n[nH]c(=O)n3c2)ncc1F)C(C)C	–	–	38.5
O=C(O)[C@@H]1CCC[C@H](Nc2nc(-c3ccc4n[nH]c(=O)n4c3)ncc2F)C1	> 50	14.3	–
O=C(O)CCCCCNc1nc(-c2ccc3n[nH]c(=O)n3c2)ncc1F	–	149	> 100
CC(C)[C@@H](CC(=O)O)Nc1nc(-c2ccc3n[nH]c(=O)n3c2)ncc1F	> 50	> 33.3	–
COC(=O)[C@@H]1CCC[C@H](Nc2nc(-c3ccc4n[nH]c(=O)n4c3)ncc2F)C1	> 50	> 33.3	–
O=C(N[C@@H]1CCC[C@H](Nc2nc(-c3ccc4n[nH]c(=O)n4c3)ncc2F)C1)N1CCCC1	–	–	9.1
